Assays:
[1] = test system: L1210; assay: Selectivity index, ratio of IC50 for mouse L1210 cells to IC50 for mouse P815 cells; assay type: functional
[2] = test system: L1210; assay: Selectivity index, ratio of IC50 for mouse L1210 cells to IC50 for mouse 4T1 cells; assay type: functional
[3] = test system: L1210; assay: Cytotoxicity against mouse L1210 cells after 72 hrs by MTT assay; assay type: functional, cell-based; conditions: L1210, 72 h
[4] = test system: 4T1; assay: Cytotoxicity against mouse 4T1 cells expressing biotin receptor after 72 hrs by MTT assay; assay type: functional, cell-based; conditions: 4T1, 72 h
[5] = test system: P815; assay: Cytotoxicity against mouse P815 cells expressing biotin receptor after 72 hrs by MTT assay; assay type: functional, cell-based; conditions: P815, 72 h
[6] = test system: P815; assay: Ratio of bullatacin IC50 to compound IC50 for mouse P815 cells expressing biotin receptor; assay type: functional
[7] = test system: 4T1; assay: Ratio of bullatacin IC50 to compound IC50 for mouse 4T1 cells expressing biotin receptor; assay type: functional
[8] = Antitumor activity against mouse HepS cells xenografted in mouse assessed as tumor growth inhibition at 30 ug/kg; assay type: functional; conditions: read-out: TGI
[9] = test system: 4T1; assay: Ratio of squamocin IC50 to compound IC50 for mouse 4T1 cells expressing biotin receptor; assay type: functional
[10] = test system: P815; assay: Ratio of squamocin IC50 to compound IC50 for mouse P815 cells expressing biotin receptor; assay type: functional

With `CCCCCC[C@H](O)CCC[C@H](OC(=O)CCCC[C@@H]1SC[C@@H]2NC(=O)N[C@@H]21)[C@H]1CC[C@H]([C@H]2CC[C@H]([C@H](O)CCCCCCCCCCCCC3=C[C@H](C)OC3=O)O2)O1` the “Ratio IC50” value [1] was less than 0.048, the “Ratio IC50” value [2] was 1.52 and the IC50 [3] was 960 nM. The IC50 [4] was 630 nM and the IC50 [5] was greater than 20000 nM.
For `CCCCCC[C@@H](CCC[C@H](OC(=O)CCCC[C@@H]1SC[C@@H]2NC(=O)N[C@@H]21)[C@H]1CC[C@H]([C@H]2CC[C@H]([C@H](O)CCCCCCCCCCCCC3=C[C@H](C)OC3=O)O2)O1)OC(=O)CCCC[C@@H]1SC[C@@H]2NC(=O)N[C@@H]21`, the “Ratio IC50” value [1] was less than 0.28, the “Ratio IC50” value [2] was 19.62 and the IC50 [3] was 5690 nM. The IC50 [4] was 290 nM and the IC50 [5] was greater than 20000 nM.
In the case of `CCCCCCCCCC[C@H](O)[C@H]1CC[C@H]([C@H]2CC[C@H]([C@@H](CCCCCCCCCC[C@@H](O)CC3=C[C@H](C)OC3=O)OC(=O)CCCCCNC(=O)CCCC[C@@H]3SC[C@@H]4NC(=O)N[C@@H]43)O2)O1`, the “Ratio IC50” value [1] is reported as less than 0.092, the “Ratio IC50” value [2] is reported as 6.1 and the IC50 [3] is reported as 1830 nM. The IC50 [4] was 300 nM and the IC50 [5] was greater than 20000 nM.
In the case of `CCCCCCCCCC[C@H](O)[C@H]1CC[C@H]([C@H]2CC[C@H]([C@@H](CCCCCCCCCC[C@H](CC3=C[C@H](C)OC3=O)OC(=O)CCCCCNC(=O)CCCC[C@@H]3SC[C@@H]4NC(=O)N[C@@H]43)OC(=O)CCCCCNC(=O)CCCC[C@@H]3SC[C@@H]4NC(=O)N[C@@H]43)O2)O1`, the “Ratio IC50” value [1] is reported as less than 0.1, the “Ratio IC50” value [2] is reported as 1.92 and the IC50 [3] is reported as 2040 nM. The IC50 [4] was 1060 nM and the IC50 [5] was greater than 20000 nM.
In the case of `CCCCCCCCCC[C@H](OC(=O)CCCC[C@@H]1SC[C@@H]2NC(=O)N[C@@H]21)[C@H]1CC[C@H]([C@H]2CC[C@H]([C@H](O)CCCCCCCCCC[C@@H](O)CC3=C[C@H](C)OC3=O)O2)O1`, the “Ratio IC50” value [1] is reported as less than 0.29, the “Ratio IC50” value [2] is reported as 3.47 and the IC50 [3] is reported as 5790 nM. For the same compound, the IC50 [4] was 1670 nM and the IC50 [5] was greater than 20000 nM.
For `CCCCCCCCCC[C@H](O)[C@H]1CC[C@H]([C@H]2CC[C@H]([C@H](O)CCCCCCCCCC[C@H](CC3=C[C@H](C)OC3=O)OC(=O)CCCC[C@@H]3SC[C@@H]4NC(=O)N[C@@H]43)O2)O1`, the “Ratio IC50” value [1] was less than 0.071, the “Ratio IC50” value [2] was 2.18 and the IC50 [3] was 1420 nM. The IC50 [4] was 650 nM and the IC50 [5] was greater than 20000 nM.
With `CCCCCCCCCC[C@H](OC(=O)CCCCCNC(=O)CCCC[C@@H]1SC[C@@H]2NC(=O)N[C@@H]21)[C@H]1CC[C@H]([C@H]2CC[C@H]([C@H](O)CCCCCCCCCC[C@@H](O)CC3=C[C@H](C)OC3=O)O2)O1` the “Ratio IC50” value [1] was 2.66, the “Ratio IC50” value [2] was 29.46 and the “Ratio IC50” value [6] was 8. It also gave an IC50 [3] of 1090 nM, an IC50 [4] of 37 nM and an IC50 [5] of 410 nM. The “Ratio IC50” value [7] was 3.
With `CCCCCC[C@@H](CCC[C@H](O)[C@H]1CC[C@H]([C@H]2CC[C@H]([C@H](O)CCCCCCCCCCCCC3=C[C@H](C)OC3=O)O2)O1)OC(=O)CCCCCNC(=O)CCCC[C@@H]1SC[C@@H]2NC(=O)N[C@@H]21` the “Ratio IC50” value [1] was less than 0.034, the “Ratio IC50” value [2] was 0.1 and the IC50 [3] was 680 nM. It also gave an IC50 [4] of 6570 nM and an IC50 [5] greater than 20000 nM.
With `CCCCCCCCCC[C@H](OC(=O)CCCCCNC(=O)CCCC[C@@H]1SC[C@@H]2NC(=O)N[C@@H]21)[C@H]1CC[C@H]([C@H]2CC[C@H]([C@H](O)CCCCCCCCCC[C@H](CC3=C[C@H](C)OC3=O)OC(=O)CCCCCNC(=O)CCCC[C@@H]3SC[C@@H]4NC(=O)N[C@@H]43)O2)O1` the “Ratio IC50” value [1] was 1.96, the “Ratio IC50” value [2] was 26.73 and the IC50 [3] was 1470 nM. The IC50 [4] was 55 nM and the IC50 [5] was 750 nM.
With `CCCCCC[C@H](O)CCC[C@H](OC(=O)CCCCCNC(=O)CCCC[C@@H]1SC[C@@H]2NC(=O)N[C@@H]21)[C@H]1CC[C@H]([C@H]2CC[C@H]([C@H](O)CCCCCCCCCCCCC3=C[C@H](C)OC3=O)O2)O1` the “Ratio IC50” value [1] was less than 0.069, the “Ratio IC50” value [2] was 0.9 and the IC50 [3] was 1380 nM. For the same compound, the IC50 [4] was 1540 nM and the IC50 [5] was greater than 20000 nM.
In the case of `CCCCCC[C@H](O)CCC[C@H](O)[C@H]1CC[C@H]([C@H]2CC[C@H]([C@H](O)CCCCCCCCCCCCC3=C[C@H](C)OC3=O)O2)O1` [SQUAMOCIN], the “Ratio IC50” value [1] is reported as 0.068, the “Ratio IC50” value [2] is reported as 3.75 and the IC50 [3] is reported as 1350 nM. The IC50 [4] was 360 nM, the inhibition in vivo at 0.03 mg/kg [8] was 78% and the IC50 [5] was 19800 nM.
In the case of `CCCCCCCCCC[C@H](O)[C@H]1CC[C@H]([C@H]2CC[C@H]([C@H](O)CCCCCCCCCC[C@H](CC3=C[C@H](C)OC3=O)OC(=O)CCCCCNC(=O)CCCC[C@@H]3SC[C@@H]4NC(=O)N[C@@H]43)O2)O1`, the “Ratio IC50” value [1] is reported as 2.39, the “Ratio IC50” value [2] is reported as 39.62 and the IC50 [3] is reported as 2100 nM. For the same compound, the IC50 [4] was 53 nM and the IC50 [5] was 880 nM.
In the case of `CCCCCC[C@@H](CCC[C@H](O)[C@H]1CC[C@H]([C@H]2CC[C@H]([C@@H](CCCCCCCCCCCCC3=C[C@H](C)OC3=O)OC(=O)CCCC[C@@H]3SC[C@@H]4NC(=O)N[C@@H]43)O2)O1)OC(=O)CCCC[C@@H]1SC[C@@H]2NC(=O)N[C@@H]21`, the “Ratio IC50” value [1] is reported as less than 0.063, the “Ratio IC50” value [2] is reported as 0.26 and the IC50 [3] is reported as 1250 nM. It also gave an IC50 [4] of 4870 nM and an IC50 [5] greater than 20000 nM.
With `CCCCCC[C@H](O)CCC[C@H](OC(=O)CCCCCNC(=O)CCCC[C@@H]1SC[C@@H]2NC(=O)N[C@@H]21)[C@H]1CC[C@H]([C@H]2CC[C@H]([C@@H](CCCCCCCCCCCCC3=C[C@H](C)OC3=O)OC(=O)CCCCCNC(=O)CCCC[C@@H]3SC[C@@H]4NC(=O)N[C@@H]43)O2)O1` the “Ratio IC50” value [1] was 0.9, the “Ratio IC50” value [2] was 2.47 and the IC50 [3] was 840 nM. The IC50 [4] was 340 nM and the IC50 [5] was 930 nM.
With `CCCCCC[C@H](O)CCC[C@H](O)[C@H]1CC[C@H]([C@H]2CC[C@H]([C@@H](CCCCCCCCCCCCC3=C[C@H](C)OC3=O)OC(=O)CCCCCNC(=O)CCCC[C@@H]3SC[C@@H]4NC(=O)N[C@@H]43)O2)O1` the “Ratio IC50” value [1] was 0.48, the “Ratio IC50” value [2] was 14.94 and the IC50 [3] was 1150 nM. For the same compound, the IC50 [4] was 77 nM and the IC50 [5] was 2410 nM.
For `CCCCCC[C@@H](CCC[C@H](OC(=O)CCCCCNC(=O)CCCC[C@@H]1SC[C@@H]2NC(=O)N[C@@H]21)[C@H]1CC[C@H]([C@H]2CC[C@H]([C@H](O)CCCCCCCCCCCCC3=C[C@H](C)OC3=O)O2)O1)OC(=O)CCCCCNC(=O)CCCC[C@@H]1SC[C@@H]2NC(=O)N[C@@H]21`, the “Ratio IC50” value [1] was less than 0.059, the “Ratio IC50” value [2] was 0.63 and the IC50 [3] was 1180 nM. The IC50 [4] was 1870 nM and the IC50 [5] was greater than 20000 nM.
In the case of `CCCCCC[C@@H](CCC[C@H](O)[C@H]1CC[C@H]([C@H]2CC[C@H]([C@H](O)CCCCCCCCCCCCC3=C[C@H](C)OC3=O)O2)O1)OC(=O)CCCC[C@@H]1SC[C@@H]2NC(=O)N[C@@H]21`, the “Ratio IC50” value [1] is reported as 0.62, the “Ratio IC50” value [2] is reported as 16.94 and the IC50 [3] is reported as 830 nM. For the same compound, the IC50 [4] was 49 nM and the IC50 [5] was 1340 nM.
With `CCCCCC[C@@H](CCC[C@H](O)[C@H]1CC[C@H]([C@H]2CC[C@H]([C@@H](CCCCCCCCCCCCC3=C[C@H](C)OC3=O)OC(=O)CCCCCNC(=O)CCCC[C@@H]3SC[C@@H]4NC(=O)N[C@@H]43)O2)O1)OC(=O)CCCCCNC(=O)CCCC[C@@H]1SC[C@@H]2NC(=O)N[C@@H]21` the “Ratio IC50” value [1] was 1.05, the “Ratio IC50” value [2] was 22.57 and the IC50 [3] was 790 nM. The IC50 [4] was 35 nM, the “Ratio IC50” value [9] was greater than 10 and the IC50 [5] was 750 nM. The “Ratio IC50” value [10] was greater than 26.
With `CCCCCCCCCC[C@H](O)[C@H]1CC[C@H]([C@H]2CC[C@H]([C@@H](CCCCCCCCCC[C@@H](O)CC3=C[C@H](C)OC3=O)OC(=O)CCCC[C@@H]3SC[C@@H]4NC(=O)N[C@@H]43)O2)O1` the “Ratio IC50” value [1] was 0.88, the “Ratio IC50” value [2] was 32.62 and the IC50 [3] was 1370 nM. For the same compound, the IC50 [4] was 42 nM and the IC50 [5] was 1550 nM.
In the case of `CCCCCCCCCC[C@@H](O)[C@@H]1CC[C@@H]([C@@H]2CC[C@@H]([C@H](O)CCCCCCCCCC(O)CC3=CC(C)OC3=O)O2)O1` (stereo not given in full) [BULLATACIN], the “Ratio IC50” value [1] is reported as 0.67, the “Ratio IC50” value [2] is reported as 21.09 and the IC50 [3] is reported as 2320 nM. It also gave an IC50 [4] of 110 nM and an IC50 [5] of 3480 nM.
In the case of `CCCCCC[C@H](O)CCC[C@H](O)[C@H]1CC[C@H]([C@H]2CC[C@H]([C@@H](CCCCCCCCCCCCC3=C[C@H](C)OC3=O)OC(=O)CCCC[C@@H]3SC[C@@H]4NC(=O)N[C@@H]43)O2)O1`, the “Ratio IC50” value [1] is reported as less than 0.036, the “Ratio IC50” value [2] is reported as 0.25 and the IC50 [3] is reported as 720 nM. The IC50 [4] was 2910 nM and the IC50 [5] was greater than 20000 nM.
